# Experiments:
# [1] = Apparent BBB permeability in 3D in vitro blood brain barrier model; format: in vitro ADME, human; details: human, 3D BBB model
# Description: (§1) Hydroxy UreaMethyl Acylfulvene having a negative chirality or LP-184 permeates the blood brain barrier in vitro 3D model, which closely recapitulates the human blood brain barrier. This model mimics transport properties of the BBB due to the formation of tight junctions, higher expression of specific carriers, and/or great cell viability. This 3D in vitro model of the BBB created by co-culturing brain endothelial cells, with pericytes and astrocytes layered in an insert, improves endothelial cell polarization, and enhances the formation of tight junctions, provides better endothelial cell-to-cell contact that is important for barrier development, and prevents the dilution of secreted neurotrophic factors. These conditions collectively lead to the development of an in vitro model that mimics the BBB.
# (§2) This assay leverages the novel 3D BBB model that allows studying both compound transport across the barrier as well as the effect of compounds on the structure and function of the BBB. […] LP-184 was as effective as the standard of care drug TMZ in penetrating the blood brain barrier. Apparent BBB permeability measured for TMZ was 1.72*10^−4 cm/s at 30 minutes and for LP-184 was 1.53*10^−4 cm/s at 30 minutes (FIG. 1).
# [2] = test system: 3D models of patient-derived xenograft (PDX) derived brain metastases of primary lung and breast cancers; test: Potency in 3D models of PDX-derived brain metastases; format: cell-based; details: 72-hour treatment period, various brain metastasis models, range over models and testing conditions
# [3] = test system: blood brain barrier in vitro 3D model (co-cultured brain endothelial cells, pericytes and astrocytes); test: Apparent BBB permeability in 3D in vitro blood brain barrier model; format: in vitro ADME, human; details: 3D BBB model, at 30 minutes
# Description: as §1, §2
# [4] = Pharmacokinetics of LP-184 in plasma, normal brain and brain tumor; format: in vivo, mice
# [5] = test system: blood brain barrier in vitro 3D model (co-cultured brain endothelial cells, pericytes and astrocytes); test: Impact on cell viability and BBB integrity in 3D BBB model; format: cell-based, human; details: 3D BBB model, compound treatment
# Description: as §1, §2
# [6] = Contralateral Normal Brain, 4 mg/kg IV
# [7] = Peritumoral Normal Brain, 4 mg/kg IV
smiles,measurement,setting,value
"Cn1nnc2c(C(N)=O)ncn2c1=O [TMZ, Temozolomide, reference compound]",Papp at 30 min,[1],172 ×10⁻⁶ cm/s
"CC1=C(CN(O)C(N)=O)C2=C(C)C3(CC3)[C@@](C)(O)C(=O)C2=C1 [LP-184, Hydroxy UreaMethyl Acylfulvene]",IC50,[2],88 to 4280 nM
same,Apparent BBB permeability,[3],1.53*10^−4 cm/s
same,Brain Tissue/Plasma Ratio,"[4]; Brain Tumor, 4 mg/kg IV",0.200
same,Half-Life,"[4]; Brain Tumor, 4 mg/kg IV",16.9 min
same,Tmax,"[4]; Brain Tumor, 4 mg/kg IV",5 min
same,Brain Tissue/Plasma Ratio,[4]; [6],0.077
same,Half-Life,[4]; [6],26.6 min
same,Tmax,[4]; [6],15 min
same,AUC0-t,"[4]; Contralateral Normal Brain, 4 mg/kg IV, Mean ± SEM",123 ± 15.9 ng·h/g
same,Brain Tissue/Plasma Ratio,[4]; [7],0.103
same,Half-Life,[4]; [7],23 min
same,Tmax,[4]; [7],15 min
same,AUC0-t,"[4]; Peritumoral Normal Brain, 4 mg/kg IV, Mean ± SEM",165 ± 11.6 ng·h/g
same,Half-Life,"[4]; Plasma, 4 mg/kg IV",14.2 min
same,Tmax,"[4]; Plasma, 4 mg/kg IV",5 min
same,AUC0-t,"[4]; Plasma, 4 mg/kg IV, Mean ± SEM",1592 ± 48.7 ng·h/mL
same,Cmax,"[4]; Plasma, 4 mg/kg IV, Mean ± SEM",3438 ± 125^ ng/ml
same,brain tumor exposure relative to plasma,[4]; based on AUC,~20%
same,brain tumor exposure compared to normal brain,[4]; higher in brain tumor,~2 fold
same,clearance,[4]; mice with tumors,39.82 mL/min/kg
same,clearance,[4]; non-tumored mice,88.07 mL/min/kg
same,BBB integrity,[5],BBB integrity was not compromised
same,Impact on cell viability,[5],insignificant impact on cell viability
